What all share (assay): relative viability (nuclei count vs DMSO), 5 days (fraction); higher = more cells survive
Compound in test [1]: Cc1ccc(-n2nc(C(C)(C)C)cc2NC(=O)Nc2ccc(OCCN3CCOCC3)c3ccccc23)cc1 [Doramapimod] + C[C@]1(O)C[C@@H](c2nc(-c3ccc4ccc(-c5ccccc5)nc4c3)c3c(N)nccn32)C1 [Linsitinib] (partner 1 µM)
An outline of the steps: (§1)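 Medians of duplicate plates are given as relative viability. That measure is the nuclei count in treated wells divided by the count in vehicle wells. Counts were taken on 4× images of lung cancer cell lines in 1536-well plates, 5 days after pin-tool dosing the day after seeding with one drug alone or a fixed anchor-drug dose plus five library-drug doses (not always all listed) in √10 steps.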

Compound in test [2]: Cn1c(Nc2ccc(C(F)(F)F)cc2)nc2cc(Oc3ccnc(-c4ncc(C(F)(F)F)[nH]4)c3)ccc21 [RAF265] + CC(=O)c1c(C)c2cnc(Nc3ccc(N4CCNCC4)cn3)nc2n(C2CCCC2)c1=O [Palbociclib] (partner 0.5 µM)
An outline of the steps:
as §1

Compound in test [3]: C1=CC=C2C(=C1)C=CC(=C2SSC3=C(C=CC4=CC=CC=C43)O)O [IPA-3] + O=C(c1cc(Cc2n[nH]c(=O)c3ccccc23)ccc1F)N1CCN(C(=O)C2CC2)CC1 [Olaparib] (partner 8 µM)
An outline of the steps: as §1

Compound in test [4]: Cc1ccc(-n2nc(C(C)(C)C)cc2NC(=O)Nc2ccc(OCCN3CCOCC3)c3ccccc23)cc1 [Doramapimod] + CC(=O)c1c(C)c2cnc(Nc3ccc(N4CCNCC4)cn3)nc2n(C2CCCC2)c1=O [Palbociclib] (partner 0.5 µM)
A digest of the protocol:
as §1

UMC-11: the relative viability is 0.946 in test [1] (first compound 0.02 µM); 0.992 in test [1] (first compound 0.06325 µM); 1.03 in test [1] (first compound 0.2 µM); 1 in test [1] (first compound 0.6325 µM); 0.718 in test [1] (first compound 2 µM); 0.309 in test [2] (first compound 0.01 µM). For the same cell line, the relative viability in test [2] (first compound 0.03162 µM) worked out at 0.336; in test [2] (first compound 0.1 µM), 0.334; in test [2] (first compound 0.3162 µM), 0.314; in test [2] (first compound 1 µM), 0.32; in test [3] (first compound 0.2 µM) it was 1.06; in test [3] (first compound 0.6325 µM) it was 0.459. Also, the relative viability came to 0.338 in test [3] (first compound 2 µM); 0.361 in test [3] (first compound 6.325 µM); 0.384 in test [3] (first compound 20 µM); 0.342 in test [4] (first compound 0.02 µM); 0.328 in test [4] (first compound 0.06325 µM); 0.313 in test [4] (first compound 0.2 µM). The relative viability in test [4] (first compound 0.6325 µM) came to 0.323; in test [4] (first compound 2 µM), 0.308.

The record behind these values is the supplement of paper PMC10307832.
